{"source": "patent US20210275498A1", "about": "“IMIDAZOLYL ETHANAMIDE PENTANDIOIC ACID FOR USE IN THERAPY OF SYMPTOMS RELATED TO EXPOSURE TO LETHAL RADIATION” (priority 2018, published 2021)", "molecules": {"B1": {"name": "G-CSF: Neupogen (Filgrastim; Granulocyte colony-stimulating factor; G-CSF), positive control article, Amgen (protein, UniProt P09919 31-207, looked up)", "Granulocyte …": "TPLGPASSLPQSFLLKCLEQVRKIQGDGAALQEKLVSECATYKLCHPEELVLLGHSLGIPWAPLSSCPSQALQLAGCLSQLHSGLFLYQGLLQALEGISPELGPTLDTLQLDVADFATTIWQQMEELGMAPALQPTQGAMPAFASAFQRRAGGVLVASHLQSFLEVSYRVLRHLAQP", "modifications": "filgrastim", "notes": "Neupogen (Filgrastim; Granulocyte colony-stimulating factor; G-CSF), positive control article, Amgen"}}, "tested_on": "C57BL/6 mice", "experiment": "Mortality / survival to Day 30 after whole-body irradiation (5.8 Gy or 6.0 Gy)", "format": "in vivo", "details": "for Quantity ratio of survival probability (dose reduction factor, DRF), day 30, relative to control group: vs VL (POx1)", "description": "Based on a previously reported study (Williams et al. 2010, Plett et al. 2012, Chua et al. 2014, Singh et al., 2015), the mouse model was developed to investigate LD25 and LD50. The whole-body irradiation and selected dose serve as a translational in vivo model mimicking possible radiation exposure to humans following a nuclear incident.\nAnimals (C57BL/6 mice) were supplied by Jackson Laboratories (Bar Harbor, Me. facility). Animals were maintained at SNBL USA (Everett, Wash. facility) as stock prior to study assignment and were screened for health by veterinary staff prior to use on study. 205 animals were assigned to treatment groups.\nOral application of Myelo001 would be conducive for nuclear or other radiation incidents and was chosen for this study. […] The human equivalent dose is estimated to be 4 mg/kg based on allometric calculations.\nBased on the ARS Scoring SNBL SOP, if the sum of the three parameter scores totaled 8 or higher, the animal was considered moribund and was euthanized with an unscheduled necropsy performed according to the moribund animal SOP.\nCageside mortality checks were conducted per SOP, twice daily after Day −3. Morning and afternoon checks began 2 to 3 hours after the completion of the respective ARS scorings. Individual assessments were only documented for apparently moribund animals by re-scoring, or for found dead animals by removal.\nSurvival data were summarized descriptively and graphically using the Kaplan-Meier method. Further, death rates were tabulated by treatment. The equality of two or more survivor curves was tested with log rank tests. In addition, Cox-regression models were used to estimate hazard ratios, p-values and 95% confidence intervals (95% CI).\nThe focus of the survival analysis is irradiation related death between irradiation on Day 0 and Day 30. Thus, the scheduled necropsies on Day 7 and Day 14 or deaths unrelated to radiation (Animals 2041, 9012 and 9021) were considered as censored events.", "key": {"[1]": {"details": "Group 3 ML (IPx2): 25 mg/kg IP, Day −3 to 0 (6x), prophylactic, 5.8 Gy"}, "[2]": {"details": "Group 4 ML (POx2): 25 mg/kg per os, Day −3 to 0 (6x), prophylactic, 5.8 Gy"}, "[3]": {"details": "Group 5 ML (POx1): 50 mg/kg per os SID Day −2, −1, 0, prophylactic, 5.8 Gy"}, "[4]": {"details": "Group 9 MH (POx1): 50 mg/kg per os SID Day 1, 2, 3, therapeutic, 6.0 Gy"}, "[5]": {"details": "Group 6 GL (SCx1): 0.34 mg/kg SC SID Day 1, 2, 3, therapeutic, 5.8 Gy"}}}
{"molecule": "O=C(O)CCCC(=O)NCCc1c[nH]cn1", "note": "[Myelo001, 5-{[2-(1H-imidazol-4-yl)ethyl]amino}-5-oxo-pentanoic acid]", "values": [{"measurement": "Dead (irradiation related deaths)", "setting": "[1]", "value": 3}, {"measurement": "Irradiation related death rate, Rate (per 100 Days)", "setting": "[1]", "value": 1.30, "unit": "per 100 Days"}, {"measurement": "Survival after 30 days (Kaplan-Meier estimate)", "setting": "[1]", "value": 0.54}, {"measurement": "Time at Risk", "setting": "[1]", "value": 231, "unit": "days"}, {"measurement": "Time to 10% death, Time", "setting": "[1]", "value": 13, "unit": "days"}, {"measurement": "Hazard ratio (Cox regression, risk of radiation induced death)", "setting": "Group 3 ML (IPx2): 25 mg/kg IP, Day −3 to 0 (6x), prophylactic, 5.8 Gy, reference group VL (POx1), 2", "value": 2.48}, {"measurement": "Quantity ratio of survival probability (dose reduction factor, DRF), day 30, relative to control group", "setting": "Group 3 ML (IPx2): 25 mg/kg IP, Day −3 to 0 (6x), prophylactic, 5.8 Gy, 2", "value": 0.7}, {"measurement": "Dead (irradiation related deaths)", "setting": "[2]", "value": 6}, {"measurement": "Irradiation related death rate, Rate (per 100 Days)", "setting": "[2]", "value": 0.96, "unit": "per 100 Days"}, {"measurement": "Time at Risk", "setting": "[2]", "value": 627, "unit": "days"}, {"measurement": "Time to 10% death, Time", "setting": "[2]", "value": 15, "unit": "days"}, {"measurement": "Hazard ratio (Cox regression, risk of radiation induced death)", "setting": "Group 4 ML (POx2): 25 mg/kg per os, Day −3 to 0 (6x), prophylactic, 5.8 Gy, reference group VL (POx1), 2", "value": 1.49}, {"measurement": "Dead (irradiation related deaths)", "setting": "[3]", "value": 3}, {"measurement": "Irradiation related death rate, Rate (per 100 Days)", "setting": "[3]", "value": 0.44, "unit": "per 100 Days"}, {"measurement": "Time at Risk", "setting": "[3]", "value": 680, "unit": "days"}, {"measurement": "Time to 10% death, Time", "setting": "[3]", "value": 21, "unit": "days"}, {"measurement": "Hazard ratio (Cox regression, risk of radiation induced death)", "setting": "Group 5 ML (POx1): 50 mg/kg per os SID Day −2, −1, 0, prophylactic, 5.8 Gy, reference group VL (POx1), 2", "value": 0.64}, {"measurement": "Dead (irradiation related deaths)", "setting": "[4]", "value": 3}, {"measurement": "Irradiation related death rate, Rate (per 100 Days)", "setting": "[4]", "value": 0.48, "unit": "per 100 Days"}, {"measurement": "Time at Risk", "setting": "[4]", "value": 611, "unit": "days"}, {"measurement": "Time to 10% death, Time", "setting": "[4]", "value": 23, "unit": "days"}, {"measurement": "survival", "setting": "Group 9 MH (POx1): 50 mg/kg per os SID Day 1, 2, 3, therapeutic, 6.0 Gy (LD50/30), control Group 8 56%", "value": 86, "unit": "%"}, {"measurement": "Hazard ratio (Cox regression, risk of radiation induced death)", "setting": "Group 9 MH (POx1): 50 mg/kg per os SID Day 1, 2, 3, therapeutic, 6.0 Gy, reference group VH (POx1), 8", "value": 0.32}]}
{"molecule": "B1", "values": [{"measurement": "Dead (irradiation related deaths)", "setting": "[5]", "value": 1}, {"measurement": "Irradiation related death rate, Rate (per 100 Days)", "setting": "[5]", "value": 0.42, "unit": "per 100 Days"}, {"measurement": "Survival after 30 days (Kaplan-Meier estimate)", "setting": "[5]", "value": 0.90}, {"measurement": "Time at Risk", "setting": "[5]", "value": 237, "unit": "days"}, {"measurement": "Time to 10% death, Time", "setting": "[5]", "value": 12, "unit": "days"}, {"measurement": "Hazard ratio (Cox regression, risk of radiation induced death)", "setting": "Group 6 GL (SCx1): 0.34 mg/kg SC SID Day 1, 2, 3, therapeutic, 5.8 Gy, reference group VL (POx1), 2", "value": 0.72}, {"measurement": "Quantity ratio of survival probability (dose reduction factor, DRF), day 30, relative to control group", "setting": "Group 6 GL (SCx1): 0.34 mg/kg SC SID Day 1, 2, 3, therapeutic, 5.8 Gy, 2", "value": 1.1}]}
